Test results reported in article PMC7617978, “Anti-trypanosomal quinazolines targeting lysyl-tRNA synthetases show partial efficacy in a mouse model of acute Chagas disease” (Science translational medicine, 2025).

System: T. cruzi epimastigote lysates
Assay: Isothermal proteome profiling (iTPP), other hit proteins
Assay type: binding
Details: 10× EC50, 48°C
Method: T. cruzi epimastigote lysates were generated as previously described ([29]). Isothermal TPP assays were performed as previously described ([25]). […] Data processing and analyses were performed as previously described ([25]), except proteins were identified via searches against the T. cruzi Dm28C proteome (tritrypdb.org, version 49).

[1] = 19S proteasome regulatory subunit (C4B63_14g170)
[2] = Conserved hypothetical protein (C4B63_42g251)
[3] = Mitochondrial processing peptidase, beta subunit (C4B63_3g1101)
[4] = Ribosomal protein S26 (C4B63_6g2300)
[5] = cysteine peptidase, Clan CA, family C2 (C4B63_22g162)

SMILES: Cc1nc(N)c2c(F)c(F)c(SC3CCCCC3)c(F)c2n1 [DMU759, 7-(Cyclohexylthio)-5,6,8-trifluoro-2-methylquinazolin-4-amine]
- Abundance Log2 fold change Rep 1 [1]: -2.64
- Abundance Log2 fold change Rep 2 [1]: -3.79
- Abundance Log2 fold change Rep 1 [2]: -2.25
- Abundance Log2 fold change Rep 2 [2]: -1.75
- Abundance Log2 fold change Rep 1 [3]: -2.04
- Abundance Log2 fold change Rep 2 [3]: -2.35
- Abundance Log2 fold change Rep 1 (P-type H+-ATPase (C4B63_116g3)): -2.27
- Abundance Log2 fold change Rep 2 (P-type H+-ATPase (C4B63_116g3)): -1.74
- Abundance Log2 fold change Rep 1 [4]: -1.59
- Abundance Log2 fold change Rep 2 [4]: -1.80
- Abundance Log2 fold change Rep 1 [5]: -1.58
- Abundance Log2 fold change Rep 2 [5]: -2.80
